From ChEMBL document CHEMBL1201861, “Genomics of Drug Sensitity in Cancer screening data, Wellcome Trust Sanger Institute”
pIC50: −log10 of the molar value.

What follows are molecules tested on NCI-H2405 (assay: cells). Details: Homo sapiens, NCI-H2405.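 Also: growth inhibition of the human cell line, read out with a cell viability assay.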
Assay type: functional, cell-based, Homo sapiens
Description: SANGER: Inhibition of human NCI-H2405 cell growth in a cell viability assay.

| Structure (SMILES) | pIC50 |
| --- | --- |
| Cc1cn(-c2cc(NC(=O)c3ccc(C)c(Nc4nccc(-c5cccnc5)n4)c3)cc(C(F)(F)F)c2)cn1 [NILOTINIB] | < 5.70 |

What follows are molecules tested on NCI-H1703 (assay: cells). Details: Homo sapiens, NCI-H1703.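 Also: growth inhibition of NCI-H1703 cells, read out via a cell viability assay.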
Assay type: functional, cell-based, Homo sapiens
Description: SANGER: Inhibition of human NCI-H1703 cell growth in a cell viability assay.

| Structure (SMILES) | pIC50 |
| --- | --- |
| Cc1cn(-c2cc(NC(=O)c3ccc(C)c(Nc4nccc(-c5cccnc5)n4)c3)cc(C(F)(F)F)c2)cn1 [NILOTINIB] | 5.92 |

Each molecule was assayed on KYSE-150 cell line (assay: cells). Details: Homo sapiens, KYSE-150.
Assay type: functional, cell-based, Homo sapiens
Description: SANGER: Inhibition of human KYSE-150 cell growth in a cell viability assay.

| Structure (SMILES) | pIC50 |
| --- | --- |
| Cc1cn(-c2cc(NC(=O)c3ccc(C)c(Nc4nccc(-c5cccnc5)n4)c3)cc(C(F)(F)F)c2)cn1 [NILOTINIB] | < 5.70 |

Each molecule was assayed on ZR-75-30 (assay: cells). Details: Homo sapiens, ZR-75-30.
Assay type: functional, cell-based, Homo sapiens
Description: SANGER: Inhibition of human ZR-75-30 cell growth in a cell viability assay.

| Structure (SMILES) | pIC50 |
| --- | --- |
| Cc1cn(-c2cc(NC(=O)c3ccc(C)c(Nc4nccc(-c5cccnc5)n4)c3)cc(C(F)(F)F)c2)cn1 [NILOTINIB] | < 5.70 |

The molecules below were run on SAOS-2 (assay: cells). Details: Homo sapiens, SAOS-2.
Assay type: functional, cell-based, Homo sapiens
Description: SANGER: Inhibition of human Saos-2 cell growth in a cell viability assay.

| Structure (SMILES) | pIC50 |
| --- | --- |
| Cc1cn(-c2cc(NC(=O)c3ccc(C)c(Nc4nccc(-c5cccnc5)n4)c3)cc(C(F)(F)F)c2)cn1 [NILOTINIB] | < 5.70 |

These molecules were tested on RD (assay: cells). Details: Homo sapiens, RD.
Assay type: functional, cell-based, Homo sapiens
Description: SANGER: Inhibition of human RD cell growth in a cell viability assay.

| Structure (SMILES) | pIC50 |
| --- | --- |
| Cc1cn(-c2cc(NC(=O)c3ccc(C)c(Nc4nccc(-c5cccnc5)n4)c3)cc(C(F)(F)F)c2)cn1 [NILOTINIB] | < 5.70 |

The molecules below were run on HMV-2 cell line (assay: cells). Details: Homo sapiens, HMV-2.
Assay type: functional, cell-based, Homo sapiens
Description: SANGER: Inhibition of human HMV-II cell growth in a cell viability assay.

| Structure (SMILES) | pIC50 |
| --- | --- |
| Cc1cn(-c2cc(NC(=O)c3ccc(C)c(Nc4nccc(-c5cccnc5)n4)c3)cc(C(F)(F)F)c2)cn1 [NILOTINIB] | 6.13 |

The molecules below were run on SCC-4 (assay: cells). Details: Homo sapiens, SCC-4.
Assay type: functional, cell-based, Homo sapiens
Description: SANGER: Inhibition of human SCC-4 cell growth in a cell viability assay.

| Structure (SMILES) | pIC50 |
| --- | --- |
| Cc1cn(-c2cc(NC(=O)c3ccc(C)c(Nc4nccc(-c5cccnc5)n4)c3)cc(C(F)(F)F)c2)cn1 [NILOTINIB] | < 5.70 |

These molecules were tested on KP-N-YN (assay: cells). Details: Homo sapiens, KP-N-YN.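 Also: growth inhibition of KP-N-YN cells, read out with a cell viability assay.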
Assay type: functional, cell-based, Homo sapiens
Description: SANGER: Inhibition of human KP-N-YN cell growth in a cell viability assay.

| Structure (SMILES) | pIC50 |
| --- | --- |
| Cc1cn(-c2cc(NC(=O)c3ccc(C)c(Nc4nccc(-c5cccnc5)n4)c3)cc(C(F)(F)F)c2)cn1 [NILOTINIB] | < 5.70 |

The molecules below were run on SW1417 (assay: cells). Details: Homo sapiens, SW1417.
Assay type: functional, cell-based, Homo sapiens
Description: SANGER: Inhibition of human SW1417 cell growth in a cell viability assay.

| Structure (SMILES) | pIC50 |
| --- | --- |
| Cc1cn(-c2cc(NC(=O)c3ccc(C)c(Nc4nccc(-c5cccnc5)n4)c3)cc(C(F)(F)F)c2)cn1 [NILOTINIB] | < 5.70 |

The molecules below were run on IGR-1 (assay: cells). Details: Homo sapiens, IGR-1.
Assay type: functional, cell-based, Homo sapiens
Description: SANGER: Inhibition of human IGR-1 cell growth in a cell viability assay.

| Structure (SMILES) | pIC50 |
| --- | --- |
| Cc1cn(-c2cc(NC(=O)c3ccc(C)c(Nc4nccc(-c5cccnc5)n4)c3)cc(C(F)(F)F)c2)cn1 [NILOTINIB] | < 5.70 |

These molecules were tested on Detroit 562 (assay: cells). Details: Homo sapiens, Detroit 562.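 Also: growth inhibition of human Detroit 562 cells, read out by a cell viability assay.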
Assay type: functional, cell-based, Homo sapiens
Description: SANGER: Inhibition of human Detroit562 cell growth in a cell viability assay.

| Structure (SMILES) | pIC50 |
| --- | --- |
| Cc1cn(-c2cc(NC(=O)c3ccc(C)c(Nc4nccc(-c5cccnc5)n4)c3)cc(C(F)(F)F)c2)cn1 [NILOTINIB] | < 5.70 |

Each molecule was assayed on NCI-H2452 (assay: cells). Details: Homo sapiens, NCI-H2452.
Assay type: functional, cell-based, Homo sapiens
Description: SANGER: Inhibition of human NCI-H2452 cell growth in a cell viability assay.

| Structure (SMILES) | pIC50 |
| --- | --- |
| Cc1cn(-c2cc(NC(=O)c3ccc(C)c(Nc4nccc(-c5cccnc5)n4)c3)cc(C(F)(F)F)c2)cn1 [NILOTINIB] | < 5.70 |

These molecules were tested on CAKI-1 (assay: cells). Details: Homo sapiens, CAKI-1.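 Also: growth inhibition of CAKI-1 cells, measured by a cell viability assay.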
Assay type: functional, cell-based, Homo sapiens
Description: SANGER: Inhibition of human CAKI-1 cell growth in a cell viability assay.

| Structure (SMILES) | pIC50 |
| --- | --- |
| Cc1cn(-c2cc(NC(=O)c3ccc(C)c(Nc4nccc(-c5cccnc5)n4)c3)cc(C(F)(F)F)c2)cn1 [NILOTINIB] | < 5.70 |

These molecules were tested on RCM-1 (assay: cells). Details: Homo sapiens, RCM-1.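 Also: growth inhibition of the RCM-1 line, determined with a cell viability readout.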
Assay type: functional, cell-based, Homo sapiens
Description: SANGER: Inhibition of human RCM-1 cell growth in a cell viability assay.

| Structure (SMILES) | pIC50 |
| --- | --- |
| Cc1cn(-c2cc(NC(=O)c3ccc(C)c(Nc4nccc(-c5cccnc5)n4)c3)cc(C(F)(F)F)c2)cn1 [NILOTINIB] | < 5.70 |

These molecules were tested on KNS-62 (assay: cells). Details: Homo sapiens, KNS-62.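 Also: inhibition of cell growth, read out with a cell viability assay.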
Assay type: functional, cell-based, Homo sapiens
Description: SANGER: Inhibition of human KNS-62 cell growth in a cell viability assay.

| Structure (SMILES) | pIC50 |
| --- | --- |
| Cc1cn(-c2cc(NC(=O)c3ccc(C)c(Nc4nccc(-c5cccnc5)n4)c3)cc(C(F)(F)F)c2)cn1 [NILOTINIB] | < 5.70 |

The molecules below were run on Ca-Ski (assay: cells). Details: Homo sapiens, Ca-Ski.
Assay type: functional, cell-based, Homo sapiens
Description: SANGER: Inhibition of human Ca-Ski cell growth in a cell viability assay.

| Structure (SMILES) | pIC50 |
| --- | --- |
| Cc1cn(-c2cc(NC(=O)c3ccc(C)c(Nc4nccc(-c5cccnc5)n4)c3)cc(C(F)(F)F)c2)cn1 [NILOTINIB] | < 5.70 |

What follows are molecules tested on HOP-92 (assay: cells). Details: Homo sapiens, HOP-92.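 Also: cell viability readout, with IC50 reflecting inhibition of HOP-92 cell growth.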
Assay type: functional, cell-based, Homo sapiens
Description: SANGER: Inhibition of human HOP-92 cell growth in a cell viability assay.

| Structure (SMILES) | pIC50 |
| --- | --- |
| Cc1cn(-c2cc(NC(=O)c3ccc(C)c(Nc4nccc(-c5cccnc5)n4)c3)cc(C(F)(F)F)c2)cn1 [NILOTINIB] | < 5.70 |

Each molecule was assayed on NCI-H2170 (assay: cells). Details: Homo sapiens, NCI-H2170.
Assay type: functional, cell-based, Homo sapiens
Description: SANGER: Inhibition of human NCI-H2170 cell growth in a cell viability assay.

| Structure (SMILES) | pIC50 |
| --- | --- |
| Cc1cn(-c2cc(NC(=O)c3ccc(C)c(Nc4nccc(-c5cccnc5)n4)c3)cc(C(F)(F)F)c2)cn1 [NILOTINIB] | < 5.70 |

These molecules were tested on SW-620 (assay: cells). Details: Homo sapiens, SW-620.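 Also: growth inhibition of human SW-620 cells, measured by a cell viability assay.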
Assay type: functional, cell-based, Homo sapiens
Description: SANGER: Inhibition of human SW620 cell growth in a cell viability assay.

| Structure (SMILES) | pIC50 |
| --- | --- |
| Cc1cn(-c2cc(NC(=O)c3ccc(C)c(Nc4nccc(-c5cccnc5)n4)c3)cc(C(F)(F)F)c2)cn1 [NILOTINIB] | < 5.70 |

What follows are molecules tested on NY (assay: cells). Details: Homo sapiens, NY.
Assay type: functional, cell-based, Homo sapiens
Description: SANGER: Inhibition of human NY cell growth in a cell viability assay.

| Structure (SMILES) | pIC50 |
| --- | --- |
| Cc1cn(-c2cc(NC(=O)c3ccc(C)c(Nc4nccc(-c5cccnc5)n4)c3)cc(C(F)(F)F)c2)cn1 [NILOTINIB] | < 5.70 |

The molecules below were run on MEL-JUSO (assay: cells). Details: Homo sapiens, MEL-JUSO.
Assay type: functional, cell-based, Homo sapiens
Description: SANGER: Inhibition of human MEL-JUSO cell growth in a cell viability assay.

| Structure (SMILES) | pIC50 |
| --- | --- |
| Cc1cn(-c2cc(NC(=O)c3ccc(C)c(Nc4nccc(-c5cccnc5)n4)c3)cc(C(F)(F)F)c2)cn1 [NILOTINIB] | < 5.70 |

What follows are molecules tested on BPH-1 (assay: cells). Details: Homo sapiens, BPH-1.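 Also: cell viability assay measuring growth inhibition of human BPH-1 cells.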
Assay type: functional, cell-based, Homo sapiens
Description: SANGER: Inhibition of human BPH-1 cell growth in a cell viability assay.

| Structure (SMILES) | pIC50 |
| --- | --- |
| Cc1cn(-c2cc(NC(=O)c3ccc(C)c(Nc4nccc(-c5cccnc5)n4)c3)cc(C(F)(F)F)c2)cn1 [NILOTINIB] | < 5.70 |

Each molecule was assayed on NCI-H2030 (assay: cells). Details: Homo sapiens, NCI-H2030.
Assay type: functional, cell-based, Homo sapiens
Description: SANGER: Inhibition of human NCI-H2030 cell growth in a cell viability assay.

| Structure (SMILES) | pIC50 |
| --- | --- |
| Cc1cn(-c2cc(NC(=O)c3ccc(C)c(Nc4nccc(-c5cccnc5)n4)c3)cc(C(F)(F)F)c2)cn1 [NILOTINIB] | < 5.70 |

Each molecule was assayed on EFO-21 (assay: cells). Details: Homo sapiens, EFO-21.
Assay type: functional, cell-based, Homo sapiens
Description: SANGER: Inhibition of human EFO-21 cell growth in a cell viability assay.

| Structure (SMILES) | pIC50 |
| --- | --- |
| Cc1cn(-c2cc(NC(=O)c3ccc(C)c(Nc4nccc(-c5cccnc5)n4)c3)cc(C(F)(F)F)c2)cn1 [NILOTINIB] | < 5.70 |

What follows are molecules tested on SW13 (assay: cells). Details: Homo sapiens, SW13.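 Also: IC50 is inhibition of SW13 cell growth, read out with a cell viability assay.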
Assay type: functional, cell-based, Homo sapiens
Description: SANGER: Inhibition of human SW13 cell growth in a cell viability assay.

| Structure (SMILES) | pIC50 |
| --- | --- |
| Cc1cn(-c2cc(NC(=O)c3ccc(C)c(Nc4nccc(-c5cccnc5)n4)c3)cc(C(F)(F)F)c2)cn1 [NILOTINIB] | < 5.70 |

What follows are molecules tested on NCI-H460 (assay: cells). Details: Homo sapiens, NCI-H460.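 Also: cell viability assay scoring growth inhibition of human NCI-H460 cells.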
Assay type: functional, cell-based, Homo sapiens
Description: SANGER: Inhibition of human NCI-H460 cell growth in a cell viability assay.

| Structure (SMILES) | pIC50 |
| --- | --- |
| Cc1cn(-c2cc(NC(=O)c3ccc(C)c(Nc4nccc(-c5cccnc5)n4)c3)cc(C(F)(F)F)c2)cn1 [NILOTINIB] | < 5.70 |

What follows are molecules tested on NCI-H727 (assay: cells). Details: Homo sapiens, NCI-H727.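 Also: growth inhibition of human NCI-H727 cells, read out with a cell viability assay.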
Assay type: functional, cell-based, Homo sapiens
Description: SANGER: Inhibition of human NCI-H727 cell growth in a cell viability assay.

| Structure (SMILES) | pIC50 |
| --- | --- |
| Cc1cn(-c2cc(NC(=O)c3ccc(C)c(Nc4nccc(-c5cccnc5)n4)c3)cc(C(F)(F)F)c2)cn1 [NILOTINIB] | < 5.70 |

The molecules below were run on HT1197 (assay: cells). Details: Homo sapiens, HT1197.
Assay type: functional, cell-based, Homo sapiens, HT-1197
Description: SANGER: Inhibition of human HT-1197 cell growth in a cell viability assay.

| Structure (SMILES) | pIC50 |
| --- | --- |
| Cc1cn(-c2cc(NC(=O)c3ccc(C)c(Nc4nccc(-c5cccnc5)n4)c3)cc(C(F)(F)F)c2)cn1 [NILOTINIB] | < 5.70 |

These molecules were tested on SCC-9 (assay: cells). Details: Homo sapiens, SCC-9.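 Also: Read-out is a cell viability assay, with values giving inhibition of cell growth.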
Assay type: functional, cell-based, Homo sapiens
Description: SANGER: Inhibition of human SCC-9 cell growth in a cell viability assay.

| Structure (SMILES) | pIC50 |
| --- | --- |
| Cc1cn(-c2cc(NC(=O)c3ccc(C)c(Nc4nccc(-c5cccnc5)n4)c3)cc(C(F)(F)F)c2)cn1 [NILOTINIB] | < 5.70 |

Each molecule was assayed on C3A (assay: cells). Details: Homo sapiens, C3A.
Assay type: functional, cell-based, Homo sapiens
Description: SANGER: Inhibition of human C3A cell growth in a cell viability assay.

| Structure (SMILES) | pIC50 |
| --- | --- |
| Cc1cn(-c2cc(NC(=O)c3ccc(C)c(Nc4nccc(-c5cccnc5)n4)c3)cc(C(F)(F)F)c2)cn1 [NILOTINIB] | < 5.70 |

The molecules below were run on HCC1954 (assay: cells). Details: Homo sapiens, HCC1954.
Assay type: functional, cell-based, Homo sapiens
Description: SANGER: Inhibition of human HCC1954 cell growth in a cell viability assay.

| Structure (SMILES) | pIC50 |
| --- | --- |
| Cc1cn(-c2cc(NC(=O)c3ccc(C)c(Nc4nccc(-c5cccnc5)n4)c3)cc(C(F)(F)F)c2)cn1 [NILOTINIB] | < 5.70 |

Each molecule was assayed on ACHN (assay: cells). Details: Homo sapiens, ACHN.
Assay type: functional, cell-based, Homo sapiens
Description: SANGER: Inhibition of human ACHN cell growth in a cell viability assay.

| Structure (SMILES) | pIC50 |
| --- | --- |
| Cc1cn(-c2cc(NC(=O)c3ccc(C)c(Nc4nccc(-c5cccnc5)n4)c3)cc(C(F)(F)F)c2)cn1 [NILOTINIB] | < 5.70 |

Each molecule was assayed on BHT-101 (assay: cells). Details: Homo sapiens, BHT-101.
Assay type: functional, cell-based, Homo sapiens
Description: SANGER: Inhibition of human BHT-101 cell growth in a cell viability assay.

| Structure (SMILES) | pIC50 |
| --- | --- |
| Cc1cn(-c2cc(NC(=O)c3ccc(C)c(Nc4nccc(-c5cccnc5)n4)c3)cc(C(F)(F)F)c2)cn1 [NILOTINIB] | 6.19 |

What follows are molecules tested on MKN-7 (assay: cells). Details: Homo sapiens, MKN-7.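 Also: growth inhibition of MKN-7 cells, read out with a cell viability assay.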
Assay type: functional, cell-based, Homo sapiens
Description: SANGER: Inhibition of human MKN7 cell growth in a cell viability assay.

| Structure (SMILES) | pIC50 |
| --- | --- |
| Cc1cn(-c2cc(NC(=O)c3ccc(C)c(Nc4nccc(-c5cccnc5)n4)c3)cc(C(F)(F)F)c2)cn1 [NILOTINIB] | < 5.70 |

Each molecule was assayed on RERF-LC-MS (assay: cells). Details: Homo sapiens, RERF-LC-MS.
Assay type: functional, cell-based, Homo sapiens
Description: SANGER: Inhibition of human RERF-LC-MS cell growth in a cell viability assay.

| Structure (SMILES) | pIC50 |
| --- | --- |
| Cc1cn(-c2cc(NC(=O)c3ccc(C)c(Nc4nccc(-c5cccnc5)n4)c3)cc(C(F)(F)F)c2)cn1 [NILOTINIB] | < 5.70 |

These molecules were tested on MDA-MB-415 (assay: cells). Details: Homo sapiens, MDA-MB-415.
Assay type: functional, cell-based, Homo sapiens

| Structure (SMILES) | pIC50 |
| --- | --- |
| Cc1cn(-c2cc(NC(=O)c3ccc(C)c(Nc4nccc(-c5cccnc5)n4)c3)cc(C(F)(F)F)c2)cn1 [NILOTINIB] | < 5.70 |

The molecules below were run on OAW-28 (assay: cells). Details: Homo sapiens, OAW-28.
Assay type: functional, cell-based, Homo sapiens
Description: SANGER: Inhibition of human OAW-28 cell growth in a cell viability assay.

| Structure (SMILES) | pIC50 |
| --- | --- |
| Cc1cn(-c2cc(NC(=O)c3ccc(C)c(Nc4nccc(-c5cccnc5)n4)c3)cc(C(F)(F)F)c2)cn1 [NILOTINIB] | < 5.70 |
